Test results published in PMC9247443 (Frontiers in Pharmacology, 2022).
Where “and” joins values, the source holds several entries; their conditions need not be identical. Equal entries are not always repeated.

Key:
human S1P1 [1] = target: T1, human S1P1 (Homo sapiens, UniProt P21453); test: [^3H]-ozanimod competition radioligand binding
From the text: (§1) Stable clones of Chinese hamster ovary (CHO) cells expressing human S1P1 and S1P5 were generated by transfecting the cells with the N-terminal hemagglutinin-tagged receptor in pcDNA3.1 expression vectors followed by antibiotic selection for S1P1 and S1P5 and picking of clones using cyclic adenosine monophosphate assay, fluorescence-activated flow cytometry using the associated tag as well as functional [^35S]-GTPγS binding assays. Stable clones of CHO cells expressing human S1P2, S1P3, and S1P4 with an N-terminal FLAG tag were purchased from Multispan, Inc. (Hayward, CA, United States; catalog numbers C1051-1, CG1049-1, and CG1052-1 for S1P2, S1P3, and S1P4, respectively). Cells were grown to confluence in adherent culture in 500-cm^2 culture trays before being detached with cell scraper in cell-lifting buffer (10 mM HEPES/154 mM NaCl/6.85 mM ethylenediaminetetraacetic acid [EDTA], pH 7.4) and pelleted by centrifugation for 5 min at 1000 rpm. Cell pellets were then resuspended and homogenized in membrane preparation buffer (10 mM HEPES/10 mM EDTA, pH 7.4) using a Polytron PT 1200E homogenizer (Kinematica, Luzern, Switzerland). To collect the membrane pellet, cell homogenates were centrifuged at 48,000 × g at 4°C for 30 min. After discarding the supernatant, the pellet was rehomogenized and recentrifuged as described above. The final pellet was collected and homogenized in ice-cold resuspension buffer (10 mM HEPES and 0.1 mM EDTA, pH 7.4).
(§2) Assay plates were sealed and incubated at room temperature with gentle agitation for 60 min before filtration as described above.
(§3) Data were again analyzed as raw counts per 60 s per well collected from the MicroBeta2 counter.

human S1P5 [2] = target: T2, human S1P5 (Homo sapiens, UniProt Q9H228); test: [^3H]-ozanimod competition radioligand binding
From the text: as §1, §2, §3

human S1P2 = target: T3, human S1P2 (Homo sapiens, UniProt O95136); test: [^35S]-GTPγS binding; format: biochemical; conditions: mean ± SEM; for EC50: [^35S]-GTPγS binding, CHO cell membranes; for Human S1P2 IA: intrinsic activity relative to maximal S1P response (100%)
T3 construct: membrane preparation
From the text: as §1
(§4) To quantitate receptor activation and G protein coupling, [^35S]-GTPγS binding assays were performed in 96-well nonbinding surface plates (Corning, New York, New York, United States; catalog number 3604) in a final volume of 200 μl. Test compounds were serial diluted in DMSO directly to the assay plate using the Tecan D300E digital printer in a total volume of 0.4 μl. […] All wells were brought to a total volume of 40 μl with assay buffer, and the reaction was initiated by the addition of 120 μl/well of assay buffer containing a mixture of 40 μg/ml S1P1–S1P5 membranes, 5–50 μM GDP (5 μM for S1P2 and S1P4, 16.67 μM GDP for S1P1 and S1P5, and 50 μM for S1P3), and 2.5 mg/ml of WGA PVT SPA beads (Perkin Elmer catalog number RPNQ0001). Assay plates were sealed and incubated at room temperature with gentle agitation for 30 min before adding 40 μl/well of 5× [^35S]-GTPγS (200 p.m. final) (Perkin Elmer, catalog number NEG030X250UC) in basic assay buffer (20 mM HEPES/10 mM MgCl2/100 mM NaCl/1 mM EDTA, pH 7.4) and then plates were resealed for an additional 40-min incubation at room temperature with gentle agitation. The experiment was terminated by centrifugation of the plates at 1000 rpm for 3 min using an Eppendorf (Hamburg, Germany) 5810R centrifuge and read on the MicroBeta2 microplate scintillation counter. Data were analyzed as raw counts per 40 s per well as collected from the MicroBeta2 counter. Raw counts were analyzed with GraphPad Prism version 8.0.0 using nonlinear regression to generate concentration response curves.

human S1P1 [3] = target: T1, human S1P1; test: [^35S]-GTPγS binding; format: biochemical; conditions: mean ± SEM; for EC50: [^35S]-GTPγS binding, CHO cell membranes; for Human S1P1 IA: intrinsic activity relative to maximal S1P response (100%)
From the text: as §1, §4

human S1P3 = target: T4, human S1P3 (Homo sapiens, UniProt Q99500); test: [^35S]-GTPγS binding; format: biochemical; conditions: mean ± SEM; for EC50: [^35S]-GTPγS binding, CHO cell membranes; for Human S1P3 IA: intrinsic activity relative to maximal S1P response (100%)
T4 construct: membrane preparation
From the text: as §1, §4

human S1P5 [4] = target: T2, human S1P5; test: [^35S]-GTPγS binding; format: biochemical; conditions: for EC50: [^35S]-GTPγS binding, CHO cell membranes; for EC50 / Human S1P5 IA: mean ± SEM; for Human S1P5 IA: intrinsic activity relative to maximal S1P response (100%); for GTPγS potency for human S1P5 weaker than that for S1P1: S1P5 versus S1P1 EC50
From the text: as §1, §4

human S1P4 = target: T5, human S1P4 (Homo sapiens, UniProt O95977); test: [^35S]-GTPγS binding; format: biochemical; conditions: mean ± SEM; for EC50: [^35S]-GTPγS binding, CHO cell membranes; for Human S1P4 IA: intrinsic activity relative to maximal S1P response (100%)
T5 construct: membrane preparation
T5 sequence (O95977 1-384): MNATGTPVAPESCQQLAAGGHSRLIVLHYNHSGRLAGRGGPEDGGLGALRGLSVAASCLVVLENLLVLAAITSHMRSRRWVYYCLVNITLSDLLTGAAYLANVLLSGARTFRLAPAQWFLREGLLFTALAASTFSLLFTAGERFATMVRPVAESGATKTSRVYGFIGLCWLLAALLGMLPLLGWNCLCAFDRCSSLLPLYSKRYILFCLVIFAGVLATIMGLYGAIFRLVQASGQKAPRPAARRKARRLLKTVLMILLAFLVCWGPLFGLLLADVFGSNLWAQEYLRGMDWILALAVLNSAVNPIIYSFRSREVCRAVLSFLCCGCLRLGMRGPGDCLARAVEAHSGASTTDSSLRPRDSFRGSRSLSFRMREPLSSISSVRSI
From the text: as §1, §4

human S1P1 [5] = target: T1, human S1P1; test: S1P1-mediated β-arrestin recruitment assay (PathHunter eXpress EDG1 CHO-K1); format: cell-based; conditions: for Emax: CHO-K1, read-out: β-arrestin recruitment Intrinsic Activity, human S1P1; for EC50: EDG1(S1P1)/β-arrestin CHO-K1 cells, 90 min, mean ± SEM (n = 3–5) or SD (n = 2)
Experimental: Human S1P1 β-arrestin assays were carried out using the PathHunter® eXpress EDG1 CHO-K1 β-arrestin GPCR Assay (DiscoverX, Cat# 93-0207E2, including frozen cell stock, assay media, and assay plate). EDG1(S1P1)/β-arrestin CHO-K1 cells were thawed by adding 0.5 ml warm media to the vial. The cells were then transferred to 11.5 ml warm media, seeded at a density of 10,000 cells per well in a 96 well assay plate in a volume of 100 μL per well and incubated overnight in a 37°C CO2 incubator. […] Compounds were then added to the EDG1(S1P1)/β-arrestin CHO-K1 cells—10 μl per well of the 11X stock was added to the 100 ul per well of cells and the plate was incubated for 90 min in a 37°C CO2 incubator. The detection solution was prepared according to the manufacture’s protocol and 55 μl was added to each well of assay plate. The plate was then incubated for 1 h at room temperature before being read on a SpectraMax5 plate reader. Basal β-arrestin recruitment was determined using medium containing DMSO alone.

T2 sequence (Q9H228 whole entry): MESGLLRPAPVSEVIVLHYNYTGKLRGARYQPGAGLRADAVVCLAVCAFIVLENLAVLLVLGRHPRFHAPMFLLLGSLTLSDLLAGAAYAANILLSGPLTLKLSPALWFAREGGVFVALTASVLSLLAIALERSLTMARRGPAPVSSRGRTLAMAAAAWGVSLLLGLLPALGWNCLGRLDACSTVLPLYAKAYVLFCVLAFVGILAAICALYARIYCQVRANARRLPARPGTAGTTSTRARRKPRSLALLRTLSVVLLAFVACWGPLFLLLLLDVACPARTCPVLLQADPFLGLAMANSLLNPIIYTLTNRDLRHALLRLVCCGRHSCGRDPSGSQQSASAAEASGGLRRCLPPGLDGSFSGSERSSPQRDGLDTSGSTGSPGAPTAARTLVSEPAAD
T1 sequence (P21453 whole entry): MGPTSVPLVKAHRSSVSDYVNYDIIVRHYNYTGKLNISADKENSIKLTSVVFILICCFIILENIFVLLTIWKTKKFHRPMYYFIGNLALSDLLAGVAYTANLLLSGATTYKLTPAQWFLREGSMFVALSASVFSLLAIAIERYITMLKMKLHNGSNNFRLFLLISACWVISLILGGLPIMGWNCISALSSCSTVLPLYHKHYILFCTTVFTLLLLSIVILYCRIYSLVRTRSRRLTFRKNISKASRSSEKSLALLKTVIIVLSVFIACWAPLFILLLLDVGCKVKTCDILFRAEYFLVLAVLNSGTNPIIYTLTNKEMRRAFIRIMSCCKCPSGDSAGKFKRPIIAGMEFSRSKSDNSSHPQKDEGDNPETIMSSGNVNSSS
T4 sequence (Q99500 whole entry): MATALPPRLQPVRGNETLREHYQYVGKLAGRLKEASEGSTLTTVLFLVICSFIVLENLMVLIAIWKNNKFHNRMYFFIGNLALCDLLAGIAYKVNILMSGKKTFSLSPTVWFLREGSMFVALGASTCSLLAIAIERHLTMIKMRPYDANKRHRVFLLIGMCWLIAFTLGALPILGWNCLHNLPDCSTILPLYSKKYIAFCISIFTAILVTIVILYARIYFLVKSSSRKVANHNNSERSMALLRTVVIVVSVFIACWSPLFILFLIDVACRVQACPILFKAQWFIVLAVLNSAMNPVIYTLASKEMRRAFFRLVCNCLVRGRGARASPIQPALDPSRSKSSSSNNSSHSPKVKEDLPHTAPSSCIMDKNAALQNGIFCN
T3 sequence (O95136 whole entry): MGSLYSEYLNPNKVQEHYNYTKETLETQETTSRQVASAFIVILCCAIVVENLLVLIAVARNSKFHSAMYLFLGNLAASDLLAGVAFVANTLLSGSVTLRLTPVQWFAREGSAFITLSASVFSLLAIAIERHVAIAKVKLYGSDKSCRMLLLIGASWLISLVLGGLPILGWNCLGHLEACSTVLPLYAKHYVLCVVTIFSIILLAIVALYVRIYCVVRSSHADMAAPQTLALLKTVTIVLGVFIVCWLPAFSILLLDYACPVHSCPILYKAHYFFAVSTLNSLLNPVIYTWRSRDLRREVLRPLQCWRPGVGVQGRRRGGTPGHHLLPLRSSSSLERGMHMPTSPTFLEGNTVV

Structure (SMILES)	Ki (human S1P1 [1]) [nM]	Ki (human S1P5 [2]) [nM]	EC50 (human S1P2) [nM]	Human S1P2 IA (human S1P2)	EC50 (human S1P1 [3]) [nM]	Human S1P1 IA (human S1P1 [3]) [%]	EC50 (human S1P3) [nM]	Human S1P3 IA (human S1P3) [%]	EC50 (human S1P5 [4]) [nM]	Human S1P5 IA (human S1P5 [4])	Human S1P5 IA (human S1P5 [4]; listed as amiselimod-p) [%]	EC50 (human S1P4) [nM]	Human S1P4 IA (human S1P4) [%]	Emax (human S1P1 [5]) [%]	EC50 (human S1P1 [5]) [nM]	GTPγS potency for human S1P5 weaker than that for S1P1 (human S1P5 [4])	displacement of specific [^3H]-ozanimod binding, S1P1 (human S1P1 [1]; result in words)	displacement of specific [^3H]-ozanimod binding, S1P5 (human S1P5 [2]; result in words)
CCCCCCCOc1ccc(CCC(N)(CO)COP(=O)(O)O)cc1C(F)(F)F (centres unmarked) [Amiselimod-p]	0.13 ± 0.02	0.25 ± 0.04	> 4000	NR (NR indicates no response where the maximal response was less than 10% of that of S1P)	0.15 ± 0.01	84.1 ± 1.6	19 ± 2.98	29.1 ± 1.6	0.58 ± 0.08	76.6 ± 6.9%	76.6	2.23 ± 0.13	122.2 ± 3.6	76.1 ± 11.6	2.83 ± 2.21			
O=C(O)C[C@H]1CCc2c1[nH]c1ccc(OCc3ccc(C4CCCC4)c(C(F)(F)F)c3)cc21 [Etrasimod]	6.73 ± 0.62	16.3 ± 0.71	> 10000	NR (NR indicates no response where the maximal response was less than 10% of that of S1P)	5.48 ± 0.46	86.6 ± 1.1	1160 ± 354	81.2 ± 17	58.9 ± 6.75	82 ± 4.4%		1130 ± 189	40.4 ± 4.6	75.8 ± 1.8	11.3 ± 2.32	approximately 10 fold		
CCCCCCCCc1ccc(CCC(N)(CO)COP(=O)(O)O)cc1 (centres unmarked) [FTY720-p, FTY720-phosphate]				33.2 ± 1%		84.9 ± 2.3		106.5 ± 8.3		74% and 74 ± 5.1%		2.06 ± 0.3	59.2 ± 5.4	79.8 ± 4.3				
NC(CO)(CCc1ccc(Sc2cccc(OCc3ccccc3)c2)cc1Cl)COP(=O)(O)O (centres unmarked) [KRP-203-p, KRP-203-phosphate]	0.22 ± 0.02	0.24 ± 0.04	> 10000	NR (NR indicates no response where the maximal response was less than 10% of that of S1P)	0.26	85.7 ± 3.6	3.17 ± 0.26	25.7 ± 3.8	0.69 ± 0.19	45.8 ± 7.6%		3.13 ± 0.29	56.3 ± 3.8	72.3 ± 5.4	2.98 ± 0.96			
CC(C)Oc1ccc(-c2nc(-c3cccc4c3CC[C@@H]4NCCO)no2)cc1C#N [Ozanimod]		1.93 ± 0.07	> 10000	34.8 ± 1%		85 ± 1	> 1110	89.4 ± 7.4	5.84 ± 0.51	97 ± 3.7%		1490 ± 306	39.4 ± 5.3	68.7 ± 3.5		approximately 10 fold		
CCC/N=C1\S/C(=C\c2ccc(OC[C@H](O)CO)c(Cl)c2)C(=O)N1c1ccccc1C [Ponesimod]	9.37 ± 1.31	17.4 ± 4.32	> 10000	NR (NR indicates no response where the maximal response was less than 10% of that of S1P)	3.42 ± 1.17	85.8 ± 6.2	89.5 ± 14.3	82.1 ± 7.5	43.2 ± 12	92.9 ± 9.8%		> 10000	26.5 ± 2.5	61.2 ± 1.6	2.66 ± 0.42	approximately 10 fold		
CCCCCCCCCCCCC/C=C/[C@@H](O)[C@@H](N)COP(=O)(O)O [S1P, sphingosine 1-phosphate]	2.33 ± 0.17																completely displaced	completely displaced
CCc1cc(/C(C)=N/OCc2ccc(C3CCCCC3)c(C(F)(F)F)c2)ccc1CN1CC(C(=O)O)C1 [Siponimod]	0.74 ± 0.09	0.43 ± 0.08	> 10000	NR (NR indicates no response where the maximal response was less than 10% of that of S1P)	0.46 ± 0.05	82.1 ± 0.9	> 1110	90.7 ± 2.5	0.3 ± 0.02	102 ± 9.1%		384 ± 67.8	81.5 ± 2.4	68.6 ± 9.2	9.3 ± 2.79			
